Blank lines part the entries; values can stand above or below the compound they belong to.
Key:
[1] = biological target: T1, Mer (h) (Homo sapiens, UniProt Q12866); assay: Mer (h) kinase assay; format: biochemical
T1 construct: purchased Millipore UK Ltd
T1 sequence (Q12866 21-999): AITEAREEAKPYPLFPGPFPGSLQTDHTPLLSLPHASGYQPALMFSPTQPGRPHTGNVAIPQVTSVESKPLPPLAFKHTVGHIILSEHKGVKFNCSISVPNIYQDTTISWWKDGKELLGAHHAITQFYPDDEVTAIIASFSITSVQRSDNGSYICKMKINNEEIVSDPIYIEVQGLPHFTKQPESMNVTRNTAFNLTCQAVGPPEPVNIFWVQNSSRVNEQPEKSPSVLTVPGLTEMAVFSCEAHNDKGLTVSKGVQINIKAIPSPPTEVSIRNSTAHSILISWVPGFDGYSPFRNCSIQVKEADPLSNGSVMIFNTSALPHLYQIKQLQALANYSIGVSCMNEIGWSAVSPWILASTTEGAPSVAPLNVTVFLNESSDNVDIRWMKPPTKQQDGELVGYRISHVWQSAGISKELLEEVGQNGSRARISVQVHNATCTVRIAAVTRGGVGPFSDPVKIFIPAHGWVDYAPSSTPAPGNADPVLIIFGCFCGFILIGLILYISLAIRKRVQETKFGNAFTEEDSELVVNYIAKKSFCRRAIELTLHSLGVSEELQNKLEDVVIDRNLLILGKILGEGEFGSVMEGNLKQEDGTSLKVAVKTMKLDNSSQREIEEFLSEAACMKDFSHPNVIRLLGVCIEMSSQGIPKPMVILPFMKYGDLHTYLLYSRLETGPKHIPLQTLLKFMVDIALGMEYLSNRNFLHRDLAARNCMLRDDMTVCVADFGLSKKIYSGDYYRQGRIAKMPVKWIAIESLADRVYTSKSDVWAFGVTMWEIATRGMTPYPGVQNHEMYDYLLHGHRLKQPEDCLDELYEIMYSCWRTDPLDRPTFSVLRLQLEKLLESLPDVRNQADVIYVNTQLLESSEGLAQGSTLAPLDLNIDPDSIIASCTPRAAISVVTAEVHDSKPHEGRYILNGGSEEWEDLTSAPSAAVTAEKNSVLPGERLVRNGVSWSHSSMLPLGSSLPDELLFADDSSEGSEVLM
Method: (§1) The above assay procedure can be used to determine the IC50 for inhibition and/or the inhibition constant, Ki. The IC50 is defined as the concentration of compound required to reduce the enzyme activity by 50% under the condition of the assay. The IC50 value is estimated by preparing a 10 point curve using a 1/2 log dilution series (for example, a typical curve may be prepared using the following compound concentrations: 10 μM, 3 μM, 1 μM, 0.3 μM, 0.1 μM, 0.03 μM, 0.01 μM, 0.003 μM, 0.001 μM and 0 μM).
(§2) Mer (h) is incubated with 8 mM MOPS pH 7.0, 0.2 mM EDTA, 30 mM NaCl, 250 μM GGMEDIYFEFMGGKKK, 10 mM MgAcetate and [γ-^33P-ATP] (specific activity approx. 500 cpm/pmol, concentration as required). The reaction is initiated by the addition of the MgATP mix. After incubation for 40 minutes at room temperature, the reaction is stopped by the addition of 3% phosphoric acid solution. 10 μL of the reaction is then spotted onto a P30 filtermat and washed three times for 5 minutes in 75 mM phosphoric acid and once in methanol prior to drying and scintillation counting.
(§3) The kinase assays described herein were performed at Millipore UK Ltd, Dundee Technology Park, Dundee DD2 1SW, UK.

[2] = biological target: T2, Axl (h) (Homo sapiens, UniProt P30530); assay: Axl (h) kinase assay; format: biochemical
T2 construct: purchased Millipore UK Ltd
T2 sequence (P30530 26-894): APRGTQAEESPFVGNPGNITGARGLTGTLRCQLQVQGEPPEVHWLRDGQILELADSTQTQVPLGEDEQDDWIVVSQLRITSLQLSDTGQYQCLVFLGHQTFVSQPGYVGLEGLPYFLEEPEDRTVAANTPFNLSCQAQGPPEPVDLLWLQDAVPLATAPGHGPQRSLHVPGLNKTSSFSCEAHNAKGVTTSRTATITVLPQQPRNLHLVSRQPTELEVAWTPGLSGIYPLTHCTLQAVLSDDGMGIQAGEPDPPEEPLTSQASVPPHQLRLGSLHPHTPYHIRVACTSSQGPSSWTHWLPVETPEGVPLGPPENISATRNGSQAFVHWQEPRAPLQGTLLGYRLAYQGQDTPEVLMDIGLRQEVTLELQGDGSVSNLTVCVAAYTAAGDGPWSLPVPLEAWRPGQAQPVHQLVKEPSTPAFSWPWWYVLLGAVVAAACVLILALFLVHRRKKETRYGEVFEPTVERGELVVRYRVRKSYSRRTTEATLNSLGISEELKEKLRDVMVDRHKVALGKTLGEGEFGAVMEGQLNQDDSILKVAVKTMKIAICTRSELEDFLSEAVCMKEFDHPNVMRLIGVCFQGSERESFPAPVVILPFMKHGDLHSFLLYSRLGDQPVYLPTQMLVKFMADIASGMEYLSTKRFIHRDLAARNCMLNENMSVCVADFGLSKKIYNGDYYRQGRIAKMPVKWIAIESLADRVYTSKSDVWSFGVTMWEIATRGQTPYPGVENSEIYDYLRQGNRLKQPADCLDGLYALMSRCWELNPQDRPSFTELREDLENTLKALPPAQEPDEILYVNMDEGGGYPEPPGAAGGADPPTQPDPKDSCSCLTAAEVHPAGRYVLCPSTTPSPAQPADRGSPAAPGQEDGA
Method: as §1
as §2, with “Axl” for “Mer”, “EDTA,” for “EDTA, 30 mM NaCl,”, “KKSRGDYMTMQIG,” for “GGMEDIYFEFMGGKKK,”
as §3

SMILES: O=C(Nc1ccc(Oc2ccnc(NC(=O)C3CC3)c2)cc1)c1c2n(n(-c3ccccc3)c1=O)CCC2 [Ex. 2, N-(4-((2-(cyclopropanecarboxamido)pyridin-4-yl)oxy)phenyl)-2-oxo-1-phenyl-2,4,5,6-tetrahydro-1H-pyrrolo[1,2-b]pyrazole-3-carboxamide]
IC50 [1]: 3 nM

SMILES: CC(=O)Nc1cc(Oc2ccc(NC(=O)c3c4n(n(-c5ccccc5)c3=O)CCC4)cc2)ccn1 [Ex. 3, N-(4-((2-acetamidopyridin-4-yl)oxy)phenyl)-2-oxo-1-phenyl-2,4,5,6-tetrahydro-1H-pyrrolo[1,2-b]pyrazole-3-carboxamide]
IC50 [1]: 35 nM

Continued, values first:

IC50 [2]: 14 nM
IC50 [1]: 74 nM
SMILES: CC(=O)Nc1cc(Oc2ccc(NC(=O)c3c4n(n(-c5ccccc5)c3=O)CCOC4)nc2)ccn1 [Ex. 12, N-(5-((2-acetamidopyridin-4-yl)oxy)pyridin-2-yl)-2-oxo-1-phenyl-2,4,6,7-tetrahydro-1H-pyrazolo[5,1-c][1,4]oxazine-3-carboxamide]

IC50 [2]: 7 nM
IC50 [1]: 8 nM
SMILES: O=C(Nc1ccc(Oc2ccnc(NC(=O)C3CC3)c2)cn1)c1c2n(n(-c3ccccc3)c1=O)CCC2 [Ex. 14, N-(5-((2-(cyclopropanecarboxamido)pyridin-4-yl)oxy)pyridin-2-yl)-2-oxo-1-phenyl-2,4,5,6-tetrahydro-1H-pyrrolo[1,2-b]pyrazole-3-carboxamide]

IC50 [2]: 5 nM
IC50 [1]: 5 nM
SMILES: O=C(Nc1ccc(Oc2ccnc(NC(=O)C3CC3)c2)cc1)c1c2n(n(-c3ccccc3)c1=O)CCOC2 [Ex. 19, N-(4-((2-(cyclopropanecarboxamido)pyridin-4-yl)oxy)phenyl)-2-oxo-1-phenyl-2,4,6,7-tetrahydro-1H-pyrazolo[5,1-c][1,4]oxazine-3-carboxamide]
